pIC50: −log10 of the molar value.
Molecular target: Tyrosine-protein kinase BTK (Homo sapiens, UniProt Q06187)
Experiment: Caliper-based kinase assay
Details: 25 °C
Procedure: A Caliper-based kinase assay (Caliper Life Sciences, Hopkinton, Mass.) was used to measure inhibition of Btk kinase activity of a compound of Formula (I). […] The reaction was then terminated with EDTA, final concentration 20 mM and the phosphorylated reaction product was quantified on a Caliper Desktop Profiler (Caliper LabChip 3000).

Tyrosine-protein kinase BTK, sequence (Q06187 whole entry): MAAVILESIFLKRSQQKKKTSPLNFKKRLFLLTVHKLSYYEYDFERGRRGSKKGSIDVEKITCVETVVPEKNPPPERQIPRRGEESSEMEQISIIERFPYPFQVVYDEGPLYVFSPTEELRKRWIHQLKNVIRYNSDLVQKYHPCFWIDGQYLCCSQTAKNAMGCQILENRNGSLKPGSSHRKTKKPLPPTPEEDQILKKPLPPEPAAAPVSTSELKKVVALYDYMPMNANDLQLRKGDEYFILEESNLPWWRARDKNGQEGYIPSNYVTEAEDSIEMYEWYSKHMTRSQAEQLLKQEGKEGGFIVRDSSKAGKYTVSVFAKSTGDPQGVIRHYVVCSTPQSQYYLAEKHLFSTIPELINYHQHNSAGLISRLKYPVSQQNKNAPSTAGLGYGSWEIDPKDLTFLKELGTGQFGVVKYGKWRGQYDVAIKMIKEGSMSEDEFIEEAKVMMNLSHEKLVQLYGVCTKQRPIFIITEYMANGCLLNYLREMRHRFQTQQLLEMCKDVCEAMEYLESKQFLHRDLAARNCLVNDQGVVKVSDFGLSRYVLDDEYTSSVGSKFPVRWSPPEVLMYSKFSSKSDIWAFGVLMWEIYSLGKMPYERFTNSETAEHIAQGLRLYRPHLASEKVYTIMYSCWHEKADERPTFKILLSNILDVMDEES

## CN(CCn1nc(-c2ccc(Oc3ccccc3)cc2)c2c(N)ncnc21)C(=O)C(C#N)=CC1CC1 [US9572811, Example 36A]
  pIC50: 8.37
